From patent US20240165244A1 (Prelude Therapeutics Incorporated, priority 2022, published 2024)

Legend:
[1] = molecular target: T1, SMARCA4 (Homo sapiens, UniProt P51532); test: SMARCA4 HiBiT degradation assay in HeLa cells; type: cell-based; conditions: 18 hours, highest concentration 10 μM
T1 construct: SMARCA4-HiBiT knock-in Hela monoclonal cell (CS3023226); host or cells: HeLa monoclonal cells with heterozygous HiBiT knock-in at the endogenous SMARCA4 locus
How it was run: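 HeLa monoclonal cells with HiBiT knocked into SMARCA4 were seeded at 2500 cells/well, dosed with compound and incubated 18 hours at 37° C. HiBiT signal reported remaining SMARCA4 protein, and values came from curve fitting.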

[2] = molecular target: T2, SMARCA2 (Homo sapiens, UniProt P51531); test: SMARCA2 HiBiT degradation assay in HeLa cells; type: cell-based; conditions: 18 hours, highest concentration 10 μM
T2 construct: SMARCA2-HiBiT knock-in Hela monoclonal cell (CS302366); host or cells: HeLa monoclonal cells with heterozygous HiBiT knock-in at the endogenous SMARCA2 locus
How it was run: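 HeLa cells carrying a heterozygous C-terminal HiBiT knock-in on SMARCA2 were seeded at 2500 cells/well. They were treated with 3-fold dilution series, top concentration 10 μM, for 18 h at 37 °C. Remaining SMARCA2-HiBiT was measured by Nano-Glo HiBiT lytic luminescence after 30-60 min at RT, followed by curve fitting.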

T1 sequence (P51532 whole entry): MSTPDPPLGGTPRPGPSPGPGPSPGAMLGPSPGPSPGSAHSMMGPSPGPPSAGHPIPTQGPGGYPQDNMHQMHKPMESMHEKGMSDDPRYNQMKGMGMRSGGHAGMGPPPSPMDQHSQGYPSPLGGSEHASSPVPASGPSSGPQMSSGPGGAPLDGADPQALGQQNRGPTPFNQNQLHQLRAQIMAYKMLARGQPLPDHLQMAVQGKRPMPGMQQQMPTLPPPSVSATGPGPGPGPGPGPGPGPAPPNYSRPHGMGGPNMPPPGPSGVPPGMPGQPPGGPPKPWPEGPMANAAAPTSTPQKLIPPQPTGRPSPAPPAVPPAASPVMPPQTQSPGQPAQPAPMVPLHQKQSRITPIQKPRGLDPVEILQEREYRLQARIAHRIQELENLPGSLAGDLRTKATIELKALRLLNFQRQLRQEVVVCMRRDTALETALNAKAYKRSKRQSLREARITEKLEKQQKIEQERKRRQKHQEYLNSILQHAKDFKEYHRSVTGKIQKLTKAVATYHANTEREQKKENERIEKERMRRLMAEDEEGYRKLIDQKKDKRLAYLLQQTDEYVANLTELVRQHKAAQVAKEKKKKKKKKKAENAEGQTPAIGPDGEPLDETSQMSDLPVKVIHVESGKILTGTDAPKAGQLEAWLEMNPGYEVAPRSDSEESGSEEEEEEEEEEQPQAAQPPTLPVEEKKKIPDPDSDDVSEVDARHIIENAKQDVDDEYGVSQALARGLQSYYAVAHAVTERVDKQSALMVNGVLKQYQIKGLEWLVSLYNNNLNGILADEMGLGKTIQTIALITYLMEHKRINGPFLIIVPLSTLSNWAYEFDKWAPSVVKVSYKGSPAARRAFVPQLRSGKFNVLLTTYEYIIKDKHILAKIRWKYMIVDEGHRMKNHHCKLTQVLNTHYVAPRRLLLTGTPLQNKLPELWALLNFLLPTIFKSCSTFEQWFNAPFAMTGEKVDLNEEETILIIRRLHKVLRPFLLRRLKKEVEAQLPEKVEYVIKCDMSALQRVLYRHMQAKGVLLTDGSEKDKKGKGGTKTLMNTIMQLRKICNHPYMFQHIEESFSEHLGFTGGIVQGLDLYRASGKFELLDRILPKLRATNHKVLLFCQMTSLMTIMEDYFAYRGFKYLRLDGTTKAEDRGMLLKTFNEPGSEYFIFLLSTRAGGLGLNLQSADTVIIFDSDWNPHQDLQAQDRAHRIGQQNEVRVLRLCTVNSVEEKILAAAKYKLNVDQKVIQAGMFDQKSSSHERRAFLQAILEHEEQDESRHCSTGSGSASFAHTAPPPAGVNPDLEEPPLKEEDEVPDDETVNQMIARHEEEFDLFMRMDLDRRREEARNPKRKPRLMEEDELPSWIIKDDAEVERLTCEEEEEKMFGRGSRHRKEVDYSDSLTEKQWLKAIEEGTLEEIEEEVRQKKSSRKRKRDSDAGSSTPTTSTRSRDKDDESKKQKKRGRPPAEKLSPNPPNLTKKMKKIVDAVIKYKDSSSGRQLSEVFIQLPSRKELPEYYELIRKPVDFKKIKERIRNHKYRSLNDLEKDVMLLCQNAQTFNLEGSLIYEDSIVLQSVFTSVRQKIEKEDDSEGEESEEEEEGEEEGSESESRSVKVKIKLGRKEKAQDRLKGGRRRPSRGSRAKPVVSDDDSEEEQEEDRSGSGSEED
T2 sequence (P51531 whole entry): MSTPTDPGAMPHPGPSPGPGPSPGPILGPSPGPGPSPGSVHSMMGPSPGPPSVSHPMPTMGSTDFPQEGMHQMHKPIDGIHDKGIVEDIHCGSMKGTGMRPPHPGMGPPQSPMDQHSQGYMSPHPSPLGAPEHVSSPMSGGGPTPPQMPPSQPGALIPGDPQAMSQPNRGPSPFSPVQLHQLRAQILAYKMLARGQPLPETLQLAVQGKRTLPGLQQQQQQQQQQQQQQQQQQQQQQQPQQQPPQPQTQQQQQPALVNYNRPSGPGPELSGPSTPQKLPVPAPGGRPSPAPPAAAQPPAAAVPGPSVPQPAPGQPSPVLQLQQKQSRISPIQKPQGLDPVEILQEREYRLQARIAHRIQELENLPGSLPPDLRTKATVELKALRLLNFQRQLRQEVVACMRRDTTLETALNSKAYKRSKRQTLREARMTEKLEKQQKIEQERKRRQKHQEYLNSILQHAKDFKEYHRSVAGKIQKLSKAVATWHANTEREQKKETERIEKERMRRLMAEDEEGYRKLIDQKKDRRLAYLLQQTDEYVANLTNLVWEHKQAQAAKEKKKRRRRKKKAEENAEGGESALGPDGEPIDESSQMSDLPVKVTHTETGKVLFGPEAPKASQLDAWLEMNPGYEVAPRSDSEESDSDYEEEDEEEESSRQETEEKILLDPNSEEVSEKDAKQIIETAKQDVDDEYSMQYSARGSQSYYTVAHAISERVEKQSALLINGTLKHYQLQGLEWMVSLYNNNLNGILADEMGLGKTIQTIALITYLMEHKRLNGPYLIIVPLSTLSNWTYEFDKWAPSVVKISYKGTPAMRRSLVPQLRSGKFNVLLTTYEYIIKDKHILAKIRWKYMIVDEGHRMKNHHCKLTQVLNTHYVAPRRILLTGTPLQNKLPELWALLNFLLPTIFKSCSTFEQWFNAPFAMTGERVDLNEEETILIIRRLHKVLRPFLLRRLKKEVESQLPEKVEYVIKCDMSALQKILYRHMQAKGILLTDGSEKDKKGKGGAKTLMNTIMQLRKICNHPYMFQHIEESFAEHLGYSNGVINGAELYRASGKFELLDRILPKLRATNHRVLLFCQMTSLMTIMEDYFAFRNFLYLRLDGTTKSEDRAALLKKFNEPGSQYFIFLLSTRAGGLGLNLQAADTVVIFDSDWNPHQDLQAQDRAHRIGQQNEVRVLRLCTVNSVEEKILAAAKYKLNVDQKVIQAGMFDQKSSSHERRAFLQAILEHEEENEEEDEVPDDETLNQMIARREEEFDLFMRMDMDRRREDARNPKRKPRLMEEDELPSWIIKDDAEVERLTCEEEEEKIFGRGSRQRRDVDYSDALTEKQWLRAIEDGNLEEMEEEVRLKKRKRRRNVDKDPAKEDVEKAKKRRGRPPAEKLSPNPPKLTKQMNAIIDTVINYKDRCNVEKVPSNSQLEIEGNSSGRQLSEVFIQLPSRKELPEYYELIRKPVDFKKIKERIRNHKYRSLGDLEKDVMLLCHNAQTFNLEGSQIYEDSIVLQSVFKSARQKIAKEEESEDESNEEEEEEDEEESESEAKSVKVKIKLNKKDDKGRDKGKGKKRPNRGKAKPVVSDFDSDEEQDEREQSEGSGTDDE

`CC[C@@]12CNc3nnc(-c4cccc(F)c4O)cc3N1C[C@H](Oc1nc(C)c(CN3CCN(c4ccc5c(c4)C(=O)N([C@H]4CCC(=O)NC4=O)C5)CC3)cc1C#N)C2` [Example 59, 5-((4-(2-((S)-2,6-dioxopiperidin-3-yl)-3-oxoisoindolin-5-yl)piperazin-1-yl)methyl)-2-(((6aR,8R)-6a-ethyl-2-(3-fluoro-2-hydroxyphenyl)-5,6,6a,7,8,9-hexahydropyrrolo[1′,2′:4,5]pyrazino[2,3-c]pyridazin-8-yl)oxy)-6-methylnicotinonitrile] showed a DC50 [1] of under 100 nM, a Dmax [1] of 50 to 75% and a DC50 [2] of under 100 nM. It also gave a Dmax [2] of over 75%.

Work on `CC[C@@]12CNc3nnc(-c4cccc(F)c4O)cc3N1C[C@H](Oc1nc(C)c(CN3CCC(c4ccc5c(c4)C(=O)N([C@H]4CCC(=O)NC4=O)C5)CC3)c(C)n1)C2` [Example 102, (S)-3-(6-(1-((2-(((6aR,8R)-6a-ethyl-2-(3-fluoro-2-hydroxyphenyl)-5,6,6a,7,8,9-hexahydropyrrolo[1′,2′:4,5]pyrazino[2,3-c]pyridazin-8-yl)oxy)-4,6-dimethylpyrimidin-5-yl)methyl)piperidin-4-yl)-1-oxoisoindolin-2-yl)piperidine-2,6-dione] yielded a DC50 [1] of over 1000 nM, a Dmax [1] of under 50% and a DC50 [2] of under 100 nM. The Dmax [2] was over 75%.

`CC[C@@]12CNc3nnc(-c4cccc(Cl)c4O)cc3N1C[C@H](Oc1cc(C)c(CN3CCC(c4ccc5c(c4)C(=O)N([C@H]4CCC(=O)NC4=O)C5)CC3)cn1)C2` [Example 100, (S)-3-(6-(1-((6-(((6aR,8R)-2-(3-chloro-2-hydroxyphenyl)-6a-ethyl-5,6,6a,7,8,9-hexahydropyrrolo[1′,2′:4,5]pyrazino[2,3-c]pyridazin-8-yl)oxy)-4-methylpyridin-3-yl)methyl)piperidin-4-yl)-1-oxoisoindolin-2-yl)piperidine-2,6-dione] showed a DC50 [1] of 100 to 1000 nM, a Dmax [1] of under 50% and a DC50 [2] of under 100 nM. For the same compound, the Dmax [2] was over 75%.

`Cc1cc(O[C@@H]2C[C@@H]3CNc4nnc(-c5cc(F)cc(F)c5O)cc4N3C2)ncc1CN1CCN(c2ccc3c(c2)C(=O)N(C2CCC(=O)NC2=O)C3)CC1` (stereo partly drawn) [Example 27, 3-(6-(4-((6-(((6aR,8R)-2-(3,5-difluoro-2-hydroxyphenyl)-5,6,6a,7,8,9-hexahydropyrrolo[1′,2′:4,5]pyrazino[2,3-c]pyridazin-8-yl)oxy)-4-methylpyridin-3-yl)methyl)piperazin-1-yl)-1-oxoisoindolin-2-yl)piperidine-2,6-dione] gave a DC50 [1] of under 100 nM, a Dmax [1] of 50 to 75% and a DC50 [2] of under 100 nM. It also gave a Dmax [2] of over 75%.

`Cc1nc(CN2CCN(c3ccc4c(c3)C(=O)N(C3CCC(=O)NC3=O)C4)CC2)cnc1O[C@H]1CN2c3cc(-c4cccc(F)c4O)nnc3NC[C@]2(C(F)F)C1` (stereo partly drawn) [Example 40, 3-(6-(4-((5-(((6aS,8R)-6a-(difluoromethyl)-2-(3-fluoro-2-hydroxyphenyl)-5,6,6a,7,8,9-hexahydropyrrolo[1′,2′:4,5]pyrazino[2,3-c]pyridazin-8-yl)oxy)-6-methylpyrazin-2-yl)methyl)piperazin-1-yl)-1-oxoisoindolin-2-yl)piperidine-2,6-dione] was tested, and the DC50 [1] was 100 to 1000 nM, the Dmax [1] was under 50% and the DC50 [2] was under 100 nM. The Dmax [2] was over 75%.

With `Cc1nc(O[C@H]2CN3c4cc(-c5cccc(F)c5O)nnc4NC[C@]3(C(F)F)C2)cnc1CN1CCN(c2ccc3c(c2)C(=O)N(C2CCC(=O)NC2=O)C3)CC1` (stereo partly drawn) [Example 51, 3-(6-(4-((5-(((6aS,8R)-6a-(difluoromethyl)-2-(3-fluoro-2-hydroxyphenyl)-5,6,6a,7,8,9-hexahydropyrrolo[1′,2′:4,5]pyrazino[2,3-c]pyridazin-8-yl)oxy)-3-methylpyrazin-2-yl)methyl)piperazin-1-yl)-1-oxoisoindolin-2-yl)piperidine-2,6-dione] the DC50 [1] was over 1000 nM, the Dmax [1] was under 50% and the DC50 [2] was under 100 nM. For the same compound, the Dmax [2] was over 75%.

Compound `Cc1cc(O[C@@H]2C[C@@H]3CNc4nnc(-c5cccc(Cl)c5O)cc4N3C2)ccc1CN1CCN(c2ccc3c(c2)C(=O)N(C2CCC(=O)NC2=O)C3)CC1` (stereo partly drawn) [Example 10, 3-(6-(4-(4-(((6aR,8R)-2-(3-chloro-2-hydroxyphenyl)-5,6,6a,7,8,9-hexahydropyrrolo[1′,2′:4,5]pyrazino[2,3-c]pyridazin-8-yl)oxy)-2-methylbenzyl)piperazin-1-yl)-1-oxoisoindolin-2-yl)piperidine-2,6-dione] has a DC50 [1] of over 1000 nM, a Dmax [1] of 50 to 75% and a DC50 [2] of under 100 nM. The Dmax [2] was over 75%.

Work on `CC[C@]12CNc3nnc(-c4cccc(F)c4O)cc3N1C[C@H](Oc1cnc(CN3CCN(c4ccc5c(c4)CN([C@H]4CCC(=O)NC4=O)C5=O)CC3)c(C)c1)C2` [Example 74, (S)-3-(5-(4-((5-(((6aS,8R)-6a-ethyl-2-(3-fluoro-2-hydroxyphenyl)-5,6,6a,7,8,9-hexahydropyrrolo[1′,2′:4,5]pyrazino[2,3-c]pyridazin-8-yl)oxy)-3-methylpyridin-2-yl)methyl)piperazin-1-yl)-1-oxoisoindolin-2-yl)piperidine-2,6-dione] yielded a DC50 [1] of under 100 nM, a Dmax [1] of over 75% and a DC50 [2] of under 100 nM. It also gave a Dmax [2] of over 75%.

`Cc1cc(O[C@H]2CN3c4cc(-c5cccc(F)c5O)nnc4NC[C@]3(C)C2)cnc1CN1CCN(c2ccc3c(c2)C(=O)N([C@H]2CCC(=O)NC2=O)C3)CC1` [Example 82, (S)-3-(6-(4-((5-(((6aS,8R)-2-(3-fluoro-2-hydroxyphenyl)-6a-methyl-5,6,6a,7,8,9-hexahydropyrrolo[1′,2′:4,5]pyrazino[2,3-c]pyridazin-8-yl)oxy)-3-methylpyridin-2-yl)methyl)piperazin-1-yl)-1-oxoisoindolin-2-yl)piperidine-2,6-dione] showed a DC50 [1] of under 100 nM, a Dmax [1] of 50 to 75% and a DC50 [2] of under 100 nM. For the same compound, the Dmax [2] was over 75%.

`Cc1cc(O[C@@H]2C[C@@H]3CNc4nnc(-c5cccc(C)c5O)cc4N3C2)ccc1CN1CCN(c2ccc3c(c2)C(=O)N(C2CCC(=O)NC2=O)C3)CC1` (stereo partly drawn) [Example 20, 3-(6-(4-(4-(((6aR,8R)-2-(2-hydroxy-3-methylphenyl)-5,6,6a,7,8,9-hexahydropyrrolo[1′,2′:4,5]pyrazino[2,3-c]pyridazin-8-yl)oxy)-2-methylbenzyl)piperazin-1-yl)-1-oxoisoindolin-2-yl)piperidine-2,6-dione] gave a DC50 [1] of over 1000 nM, a Dmax [1] of under 50% and a DC50 [2] of under 100 nM. The Dmax [2] was over 75%.

For `O=C1CCC(N2Cc3ccc(N4CCN(Cc5cnc(O[C@H]6CN7c8cc(-c9cccc(F)c9O)nnc8NC[C@]7(C(F)F)C6)c(F)c5)CC4)cc3C2=O)C(=O)N1` (stereo partly drawn) [Example 54, 3-(6-(4-((6-(((6aS,8R)-6a-(difluoromethyl)-2-(3-fluoro-2-hydroxyphenyl)-5,6,6a,7,8,9-hexahydropyrrolo[1′,2′:4,5]pyrazino[2,3-c]pyridazin-8-yl)oxy)-5-fluoropyridin-3-yl)methyl)piperazin-1-yl)-1-oxoisoindolin-2-yl)piperidine-2,6-dione], the DC50 [1] was under 100 nM, the Dmax [1] was 50 to 75% and the DC50 [2] was under 100 nM. The Dmax [2] was over 75%.

Compound `Cc1cc(CN2CCN(c3ccc4c(c3)C(=O)N(C3CCC(=O)NC3=O)C4)CC2)ccc1O[C@@H]1C[C@@H]2CNc3nnc(-c4cc(F)cc(F)c4O)cc3N2C1` (stereo partly drawn) [Example 2, 3-(6-(4-(4-(((6aR,8R)-2-(3,5-difluoro-2-hydroxyphenyl)-5,6,6a,7,8,9-hexahydropyrrolo[1′,2′:4,5]pyrazino[2,3-c]pyridazin-8-yl)oxy)-3-methylbenzyl)piperazin-1-yl)-1-oxoisoindolin-2-yl)piperidine-2,6-dione] has a DC50 [1] of under 100 nM, a Dmax [1] of over 75% and a DC50 [2] of under 100 nM. The Dmax [2] was over 75%.

Compound `Cc1cc(O[C@H]2CN3c4cc(-c5cccc(F)c5O)nnc4NC[C@@]3(CF)C2)ncc1CN1CCN(c2ccc3c(c2)C(=O)N([C@H]2CCC(=O)NC2=O)C3)CC1` [Example 58, (S)-3-(6-(4-((6-(((6aR,8R)-2-(3-Fluoro-2-hydroxyphenyl)-6a-(fluoromethyl)-5,6,6a,7,8,9-hexahydropyrrolo[1′,2′:4,5]pyrazino[2,3-c]pyridazin-8-yl)oxy)-4-methylpyridin-3-yl)methyl)piperazin-1-yl)-1-oxoisoindolin-2-yl)piperidine-2,6-dione] has a DC50 [1] of over 1000 nM, a Dmax [1] of under 50% and a DC50 [2] of under 100 nM. For the same compound, the Dmax [2] was over 75%.

`O=C1CCC(N2Cc3ccc(N4CCN(Cc5ccc(O[C@@H]6C[C@@H]7CNc8nnc(-c9cc(F)cc(F)c9O)cc8N7C6)cc5C(F)(F)F)CC4)cc3C2=O)C(=O)N1` (stereo partly drawn) [Example 15, 3-(6-(4-(4-(((6aR,8R)-2-(3,5-difluoro-2-hydroxyphenyl)-5,6,6a,7,8,9-hexahydropyrrolo[1′,2′:4,5]pyrazino[2,3-c]pyridazin-8-yl)oxy)-2-(trifluoromethyl)benzyl)piperazin-1-yl)-1-oxoisoindolin-2-yl)piperidine-2,6-dione] gave a DC50 [1] of over 1000 nM, a Dmax [1] of 50 to 75% and a DC50 [2] of under 100 nM. It also gave a Dmax [2] of over 75%.

`O=C1CCC(N2Cc3ccc(N4CCN(Cc5ccc(O[C@@H]6C[C@@H]7CNc8nnc(-c9cc(F)cc(F)c9O)cc8N7C6)cc5F)CC4)cc3C2=O)C(=O)N1` (stereo partly drawn) [Example 13, 3-(6-(4-(4-(((6aR,8R)-2-(3,5-difluoro-2-hydroxyphenyl)-5,6,6a,7,8,9-hexahydropyrrolo[1′,2′:4,5]pyrazino[2,3-c]pyridazin-8-yl)oxy)-2-fluorobenzyl)piperazin-1-yl)-1-oxoisoindolin-2-yl)piperidine-2,6-dione] gave a DC50 [1] of under 100 nM, a Dmax [1] of over 75% and a DC50 [2] of under 100 nM. It also gave a Dmax [2] of over 75%.
